Test results as given in patent US8076352B2, “Administration of carboline derivatives useful in the treatment of cancer and other diseases” (PTC Therapeutics, Inc., priority 2004, dated 2011).

The molecules below were run on hypoxia-inducible endogenous VEGF expression in HeLa cells (assay: Hypoxia-inducible endogenous VEGF expression, VEGF ELISA of conditioned media (dose-response EC50)). Conditions: HeLa cells under hypoxic conditions.
Assay type: cell-based
In short: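 Secreted VEGF was quantified by ELISA against a per-assay standard curve after HeLa cells spent 24-48 h in 1% O2, 5% CO2, N2 balance with or without compound. Across a series of, e.g., seven concentrations, percentage inhibition (max 100%, min 0%) gave EC50 and CC50 values.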

SMILES	EC50 [nM]
COCCOc1ccc(C2c3[nH]c4ccc(Cl)cc4c3CCN2C(=O)Oc2ccc(F)cc2)cc1 (centres unmarked) [Compound 388]	< 8

Same assay, conditions: HeLa cells, hypoxic conditions (1% O2)

SMILES	EC50 [nM]
Cc1ccc(C2c3[nH]c4ccc(Br)cc4c3CCN2C(=O)Oc2ccc(F)cc2)cc1 (centres unmarked) [Compound 403]	< 8
COc1ccc(C2c3[nH]c4ccc(Cl)cc4c3CCN2C(=O)Oc2ccc(F)cc2)cc1 (centres unmarked) [Compound 410]	< 8
O=C(Oc1ccc(F)cc1)N1CCc2c([nH]c3ccc(Br)cc23)C1c1ccc(C(F)(F)F)cc1 (centres unmarked) [Compound 426]	< 8

Same assay, conditions: Homo sapiens, HeLa cells under hypoxic conditions

SMILES	EC50 [nM]
CCSC(=S)N1CCc2c([nH]c3ccc(Cl)cc23)C1c1ccc(OC)cc1 (centres unmarked) [Compound 383]	< 8
COc1ccc(C2c3[nH]c4ccc(Cl)cc4c3CCN2C(=S)SC)cc1 (centres unmarked) [Compound 384]	< 8
COCCOC(=O)N1CCc2c([nH]c3ccc(Cl)cc23)C1c1ccc(OCCCn2ccnc2)cc1 (centres unmarked) [Compound 385]	8 to 40
COC(=O)N1CCc2c([nH]c3ccc(Cl)cc23)C1c1ccc(OCCCn2ccnc2)cc1 (centres unmarked) [Compound 386]	< 8
CCOC(=O)N1CCc2c([nH]c3ccc(Cl)cc23)C1c1cccc(CN2CCN(CCCN(C)C)CC2)c1 (centres unmarked) [Compound 389]	< 8
CCOC(=O)N1CCc2c([nH]c3ccc(Cl)cc23)C1c1ccc(OCCCn2cncn2)cc1 (centres unmarked) [Compound 390]	< 8
O=C(Oc1ccc(Cl)cc1)N1CCc2c([nH]c3ccc(Cl)cc23)C1c1ccc(OCCCn2cncn2)cc1 (centres unmarked) [Compound 391]	< 8
CCCOC(=O)N1CCc2c([nH]c3ccc(Cl)cc23)C1c1ccc(OCCOC)cc1 (centres unmarked) [Compound 392]	< 8
CCOC(=O)N1CCc2c([nH]c3ccc(Br)cc23)C1c1cnc(SC)nc1 (centres unmarked) [Compound 393]	< 8
CN(C)c1ncc(C2c3[nH]c4ccc(Br)cc4c3CCN2c2ncccn2)cn1 (centres unmarked) [Compound 394]	< 8
COC(=O)c1ccc(C2c3[nH]c4ccc(Cl)cc4c3CCN2C(=O)Oc2ccc(F)cc2)cc1 (centres unmarked) [Compound 395]	< 8
C=CCOc1ccc(C2c3[nH]c4ccc(Cl)cc4c3CCN2C(=O)OCC)cc1 (centres unmarked) [Compound 396]	< 8

Same assay, conditions: Homo sapiens, HeLa cells, hypoxic conditions (1% O2)

SMILES	EC50 [nM]
O=C(Oc1ccc(F)cc1)N1CCc2c([nH]c3ccc(Br)cc23)C1c1ccc(C(F)(F)F)cc1 (centres unmarked) [Compound 397]	< 8
Cc1ccc(C2c3[nH]c4ccc(Br)cc4c3CCN2C(=O)Oc2ccc(F)cc2)cc1 (centres unmarked) [Compound 398]	< 8
C=CCOc1ccc(C2c3[nH]c4ccc(Cl)cc4c3CCN2C(=O)OCCF)cc1 (centres unmarked) [Compound 399]	< 8
C=CCOc1ccc(C2c3[nH]c4ccc(Cl)cc4c3CCN2C(=O)Oc2ccc(Cl)cc2)cc1 (centres unmarked) [Compound 400]	< 8
COc1ccc(C2c3[nH]c4ccc(Cl)cc4c3CCN2C(=O)Oc2ccc(F)cc2)cc1 (centres unmarked) [Compound 401]	< 8
CCOC(=O)N1CCc2c([nH]c3ccc(Cl)cc23)C1c1ccc(OCCOCCOC)cc1 (centres unmarked) [Compound 404]	< 8
O=C(Oc1ccc(Cl)cc1)N1CCc2c([nH]c3ccc(Br)cc23)C1c1ccc(C(F)(F)F)cc1 (centres unmarked) [Compound 405]	< 8
C=CCOc1ccc(C2c3[nH]c4ccc(Cl)cc4c3CCN2C(=O)OCCC)cc1 (centres unmarked) [Compound 406]	< 8
COCCOc1ccc(C2c3[nH]c4ccc(Cl)cc4c3CCN2C(=O)OCC(C)C)cc1 (centres unmarked) [Compound 407]	< 8
C=CCOc1ccc(C2c3[nH]c4ccc(Cl)cc4c3CCN2C(=O)OC(C)C)cc1 (centres unmarked) [Compound 408]	< 8
C=CCOc1ccc(C2c3[nH]c4ccc(Cl)cc4c3CCN2C(=O)Oc2ccc(F)cc2)cc1 (centres unmarked) [Compound 409]	< 8
COCCOc1ccc(C2c3[nH]c4ccc(Cl)cc4c3CCN2C(=O)OC(C)C)cc1 (centres unmarked) [Compound 411]	< 8
C=CCOc1ccc(C2c3[nH]c4ccc(Cl)cc4c3CCN2C(=O)OCc2ccccc2)cc1 (centres unmarked) [Compound 412]	< 8
C=CCOc1ccc(C2c3[nH]c4ccc(Cl)cc4c3CCN2C(=O)Oc2ccccc2)cc1 (centres unmarked) [Compound 413]	< 8
C=CCOc1ccc(C2c3[nH]c4ccc(Cl)cc4c3CCN2C(=O)OCC(C)C)cc1 (centres unmarked) [Compound 414]	< 8
CC(=O)N1CCN(CC(O)COc2ccc(C3c4[nH]c5ccc(Cl)cc5c4CCN3C(=O)Oc3ccc(Cl)cc3)cc2)CC1 (centres unmarked) [Compound 415]	< 8
Clc1ccc2[nH]c3c(c2c1)CCNC3CCc1ccccc1 (centres unmarked) [Compound 416]	< 8
O=C(Oc1ccc(Cl)cc1)N1CCc2c([nH]c3ccc(Cl)cc23)C1c1ccc(OCCCn2ccnn2)cc1 (centres unmarked) [Compound 417]	< 8
COCCOc1ccc(C2c3[nH]c4ccc(Cl)cc4c3CCN2C(=O)Oc2ccc(Cl)cc2)cc1 (centres unmarked) [Compound 418]	< 8
COCCOc1ccc(C2c3[nH]c4ccc(Cl)cc4c3CCN2C(=O)OCc2ccccc2)cc1 (centres unmarked) [Compound 419]	< 8
O=C(Oc1ccc(Cl)cc1)N1CCc2c([nH]c3ccc(Cl)cc23)C1c1ccc(OCCCN2CCCC2)cc1 (centres unmarked) [Compound 429]	< 8
O=C(Oc1ccc(Cl)cc1)N1CCc2c([nH]c3ccc(Cl)cc23)C1c1ccc(OCCCN2CCCCC2)cc1 (centres unmarked) [Compound 433]	< 8

Results, then the molecule that gave them:

EC50 [nM]	SMILES
< 8	CCOC(=O)N1CCc2c([nH]c3ccc(Br)cc23)C1c1ccc(CNCCOC)cc1 (centres unmarked) [Compound 420]
< 8	O=C1OCC(COc2ccc(C3c4[nH]c5ccc(Cl)cc5c4CCN3C(=O)Oc3ccc(Cl)cc3)cc2)O1 (centres unmarked) [Compound 421]
< 8	COCCOc1ccc(C2c3[nH]c4ccc(Cl)cc4c3CCN2C(=O)OCCF)cc1 (centres unmarked) [Compound 423]
< 8	CC(C)(C)OC(=O)N1CCCC1C(=O)Oc1ccc(C2c3[nH]c4ccc(Cl)cc4c3CCN2C(=O)OC(C)(C)C)cc1 (centres unmarked) [Compound 424]
< 8	CCOC(=O)N1CCc2c([nH]c3ccc(Br)cc23)C1c1ccc(C(=O)N2CCN(CC)CC2)cc1 (centres unmarked) [Compound 425]
< 8	CCOC(=O)N1CCc2c([nH]c3ccc(Br)cc23)C1c1ccc(CO)cc1 (centres unmarked) [Compound 430]
< 8	COc1ccc(OC(=O)N2CCc3c([nH]c4ccc(Br)cc34)C2c2cnc(N(C)C)nc2)cc1 (centres unmarked) [Compound 431]
< 8	C=CCOc1ccc(C2c3[nH]c4ccc(Cl)cc4c3CCN2C(=O)Oc2ccc(OC)cc2)cc1 (centres unmarked) [Compound 432]
< 8	CCOC(=O)N1CCc2c([nH]c3ccc(Br)cc23)C1c1ccc(C(F)(F)F)cc1 (centres unmarked) [Compound 434]
< 8	CCOC(=O)N1CCc2c([nH]c3ccc(Br)cc23)C1c1cnc(N(C)C)nc1 (centres unmarked) [Compound 435]
< 8	COCCOc1ccc(C2c3[nH]c4ccc(Cl)cc4c3CCN2C(=O)Oc2ccccc2)cc1 (centres unmarked) [Compound 436]
< 8	CCOC(=O)N1CCc2c([nH]c3ccc(Br)cc23)C1c1ccc(C(=O)NCCOC)cc1 (centres unmarked) [Compound 438]
< 8	CC/C=C/CCC1c2[nH]c3ccc(Cl)cc3c2CCN1C(=O)OCC (centres unmarked) [Compound 439]
< 8	O=C(Oc1ccc(Cl)cc1)N1CCc2c([nH]c3ccc(Cl)cc23)C1c1ccc(NC2CCOCC2)cc1 (centres unmarked) [Compound 440]
8 to 40	CCOC(=O)N1CCc2c([nH]c3ccc(Cl)cc23)C1c1ccc(C(=O)N2COCC2(C)C)cc1 (centres unmarked) [Compound 441]
8 to 40	CCOC(=O)N1CCc2c([nH]c3ccc(Cl)cc23)C1CC(C)SC (centres unmarked) [Compound 442]
8 to 40	CNc1ncc(C2c3[nH]c4ccc(Br)cc4c3CCN2c2ncccn2)cn1 (centres unmarked) [Compound 443]
8 to 40	O=C(Oc1ccc(Cl)cc1)N1CCc2c([nH]c3ccc(Cl)cc23)C1c1ccc(F)cc1 (centres unmarked) [Compound 444]
